Laboratory results as given in patent publication US20210032257A1, “(E)-1-(4-(DIMETHYLAMINO)BUT-2-ENOYL)PYRROLIDIN-3-YL 4-((3-ISOPROPYL-5-METHYLPYRAZOLO[1,5-A]PYRIMIDIN-7-YL)AMINO)PIPERIDINE-1-CARBOXYLATE FOR INHIBITING CDK7” (Eli Lilly and Company, priority 2017, published 2021).

Legend:
Assay in all cases: Biomarker study proliferation (CellTiter-Glo)
Assay type in all cases: cell-based
A2058 = tested on: A2058
Method: (§1) Cancer cell lines are profiled to evaluate the anti-proliferative activity of a test compound in-vitro. Mutation, copy number and gene expression information of ARID1A, KMT2C, KMT2D and/or RB1 genes across cancer cell lines is obtained from COSMIC database (cancer.sanger.ac.uk) and cBioportal (http://www.cbioportal.org/). Cells are cultured in growth medium and plated into a 96-well plate in 100 μL/well growth medium at 5000 cells/well then incubated at 37° C., 5% CO2 overnight. Cells are cultured using supplier recommended media and conditions well known in the art, for example with RPMI 1640 with or without HEPES & L-Glutamine (Thermo SH30255.01) and 1 mM Sodium Pyruvate, and 10% FBS(Gibco cat #10082). The 1000× intermediate dilution plate is prepared by making a 10 mM working solution of a test sample in DMSO and performing 1:3 dilutions in DMSO for 10 points. The 10× dosing plate is prepared by adding 2 μL from the 1000× intermediate dilution plate to 198 μL of OPTIMEM®+10% FBS and mixing well. The cell plate is then treated by adding 11 μL from the 10× dosing plate into the 100 μL/well cell plate for a 1× final concentration. Staurosporine is used as a maximum growth inhibition control at a final concentration of 5 μM. The cell plate is incubated for 7 days at 37° C., 5% CO2. Seven days after treatment, Cell Titer-Glo® (Promega cat #G7571) assay buffer and substrate are removed from −20° C. and allowed to equilibrate to RT. Assay buffer is added to the substrate and swirled gently to mix. The CELL TITER-GLO® reagent (100 μL/well) is added to the cell plate and incubated at RT for 15 minutes. After 15 minutes, luminescence is read using a plate reader. Data is analyzed in Excel and graphed in GraphPad Prism. Statistical analysis and p value is calculated using Mann-Whitney nonparameteric t tests using GraphPad Prism.
(§2) Anti-proliferative effects of a test compound are categorized as insensitive (IC50≥1 μM), cytostatic (IC50<1 μM and % inhibition <70%) or cytotoxic (IC50<1 μM and % inhibition ≥70%).

BT20 = tested on: BT20
Method: as §1, §2

HCC2218 = tested on: HCC2218
Method: as §1, §2

HCC70 = tested on: HCC70
Method: as §1, §2

HEC108 = tested on: HEC108
Method: as §1, §2

HLF = tested on: HLF
Method: as §1, §2

KYSE180 = tested on: KYSE180
Method: as §1, §2

KYSE30 = tested on: KYSE30
Method: as §1, §2

LS411N = tested on: LS411N
Method: as §1, §2

M14 = tested on: M14
Method: as §1, §2

MDAPCA2B = tested on: MDAPCA2B
Method: as §1, §2

MHCC97L = tested on: MHCC97L
Method: as §1, §2

NCIH1436 = tested on: NCIH1436
Method: as §1, §2

NCIH209 = tested on: NCIH209
Method: as §1, §2

NUGC3 = tested on: NUGC3
Method: as §1, §2

SNU245 = tested on: SNU245
Method: as §1, §2

SNU387 = tested on: SNU387
Method: as §1, §2

SNU5 = tested on: SNU5
Method: as §1, §2

SW480 = tested on: SW480
Method: as §1, §2

[1] = 168 h, read-out: Anti-proliferation effect IC50

## Cc1cc(NC2CCN(C(=O)O[C@H]3CCN(C(=O)/C=C/CN(C)C)C3)CC2)n2ncc(C(C)C)c2n1 [Example 1, [(3S)-1-[(E)-4-(dimethylamino)but-2-enoyl]pyrrolidin-3-yl] 4-[(3-isopropyl-5-methyl-pyrazolo[1,5-a]pyrimidin-7-yl)amino]piperidine-1-carboxylate]
A2058; A2058, SKIN, 7 days
  Anti-proliferation effect % Inh.: 97%
  Anti-proliferation effect Outcome: Cytotoxic (cytotoxic (IC50<1 μM and % inhibition ≥70%))
A2058; Homo sapiens, A2058, 168 h, read-out: Anti-proliferation effect IC50
  IC50: 0.03 µM
BT20; BT20, BREAST, 7 days
  Anti-proliferation effect % Inh.: 45%
  Anti-proliferation effect Outcome: Cytostatic (cytostatic (IC50<1 μM and % inhibition <70%))
BT20; Homo sapiens, BT-20, 168 h, read-out: Anti-proliferation effect IC50
  IC50: 0.373 µM
HCC2218; HCC2218, BREAST, 7 days
  Anti-proliferation effect % Inh.: 41%
  Anti-proliferation effect Outcome: Cytostatic (cytostatic (IC50<1 μM and % inhibition <70%))
HCC2218; Homo sapiens, HCC2218, 168 h, read-out: Anti-proliferation effect IC50
  IC50: 0.56 µM
HCC70; HCC70, BREAST, 7 days
  Anti-proliferation effect % Inh.: 89%
  Anti-proliferation effect Outcome: Cytotoxic (cytotoxic (IC50<1 μM and % inhibition ≥70%))
HCC70; Homo sapiens, HCC70, 168 h, read-out: Anti-proliferation effect IC50
  IC50: 0.038 µM
HEC108; [1]
  IC50: 0.031 µM
HEC108; HEC108, ENDOMETRIUM, 7 days
  Anti-proliferation effect % Inh.: 90%
  Anti-proliferation effect Outcome: Cytotoxic (cytotoxic (IC50<1 μM and % inhibition ≥70%))
HLF; [1]
  IC50: 0.017 µM
HLF; LIVER, 7 days
  Anti-proliferation effect % Inh.: 100%
  Anti-proliferation effect Outcome: Cytotoxic (cytotoxic (IC50<1 μM and % inhibition ≥70%))
KYSE180; Homo sapiens, KYSE-180, 168 h, read-out: Anti-proliferation effect IC50
  IC50: 0.103 µM
KYSE180; KYSE180, OESOPHAGUS, 7 days
  Anti-proliferation effect % Inh.: 68%
  Anti-proliferation effect Outcome: Cytostatic (cytostatic (IC50<1 μM and % inhibition <70%))
KYSE30; Homo sapiens, KYSE-30, 168 h, read-out: Anti-proliferation effect IC50
  IC50: 0.076 µM
KYSE30; KYSE30, OESOPHAGUS, 7 days
  Anti-proliferation effect % Inh.: 76%
  Anti-proliferation effect Outcome: Cytotoxic (cytotoxic (IC50<1 μM and % inhibition ≥70%))
LS411N; Homo sapiens, LS-411N, 168 h, read-out: Anti-proliferation effect IC50
  IC50: 1 µM
LS411N; LS411N, INTESTINE, 7 days
  Anti-proliferation effect % Inh.: 45%
  Anti-proliferation effect Outcome: Insensitive (insensitive (IC50≥1 μM))
M14; Homo sapiens, M14, 168 h, read-out: Anti-proliferation effect IC50
  IC50: 0.032 µM
M14; M14, SKIN, 7 days
  Anti-proliferation effect % Inh.: 85%
  Anti-proliferation effect Outcome: Cytotoxic (cytotoxic (IC50<1 μM and % inhibition ≥70%))
MDAPCA2B; MDA-PCa-2b, 168 h, read-out: Anti-proliferation effect IC50
  IC50: 6.27 µM
MDAPCA2B; MDAPCA2B, PROSTATE, 7 days
  Anti-proliferation effect % Inh.: 17%
  Anti-proliferation effect Outcome: Insensitive (insensitive (IC50≥1 μM))
MHCC97L; [1]
  IC50: 0.526 µM
MHCC97L; LIVER, 7 days
  Anti-proliferation effect % Inh.: 45%
  Anti-proliferation effect Outcome: Cytostatic (cytostatic (IC50<1 μM and % inhibition <70%))
NCIH1436; Homo sapiens, NCI-H1436, 168 h, read-out: Anti-proliferation effect IC50
  IC50: 0.195 µM
NCIH1436; NCIH1436, LUNG, 7 days
  Anti-proliferation effect % Inh.: 56%
  Anti-proliferation effect Outcome: Cytostatic (cytostatic (IC50<1 μM and % inhibition <70%))
NCIH209; Homo sapiens, NCI-H209, 168 h, read-out: Anti-proliferation effect IC50
  IC50: 0.04 µM
NCIH209; NCIH209, LUNG, 7 days
  Anti-proliferation effect % Inh.: 83%
  Anti-proliferation effect Outcome: Cytotoxic (cytotoxic (IC50<1 μM and % inhibition ≥70%))
NUGC3; Homo sapiens, NUGC-3, 168 h, read-out: Anti-proliferation effect IC50
  IC50: 0.03 µM
NUGC3; NUGC3, STOMACH, 7 days
  Anti-proliferation effect % Inh.: 81%
  Anti-proliferation effect Outcome: Cytotoxic (cytotoxic (IC50<1 μM and % inhibition ≥70%))
SNU245; [1]
  IC50: 1.09 µM
SNU245; SNU245, BILIARY, 7 days
  Anti-proliferation effect % Inh.: −5%
  Anti-proliferation effect Outcome: Insensitive (insensitive (IC50≥1 μM))
SNU387; Homo sapiens, SNU-387, 168 h, read-out: Anti-proliferation effect IC50
  IC50: > 10 µM
SNU387; SNU387, LIVER, 7 days
  Anti-proliferation effect % Inh.: 12%
  Anti-proliferation effect Outcome: Insensitive (insensitive (IC50≥1 μM))
SNU5; Homo sapiens, SNU-5, 168 h, read-out: Anti-proliferation effect IC50
  IC50: 0.039 µM
SNU5; SNU5, STOMACH, 7 days
  Anti-proliferation effect % Inh.: 79%
  Anti-proliferation effect Outcome: Cytotoxic (cytotoxic (IC50<1 μM and % inhibition ≥70%))
SW480; Homo sapiens, SW480, 168 h, read-out: Anti-proliferation effect IC50
  IC50: 0.036 µM
SW480; SW480, INTESTINE, 7 days
  Anti-proliferation effect % Inh.: 90%
  Anti-proliferation effect Outcome: Cytotoxic (cytotoxic (IC50<1 μM and % inhibition ≥70%))
